In patent publication US10202371B2, “Oxazolidin-2-one-pyrimidine derivatives and the use thereof as phosphatidylinositol-3-kinase inhibitors” (Novartis AG, priority 2012, dated 2019):

Target: human PI3Kdelta p110 catalytic subunit (Rat-1 cells) (Homo sapiens (Human), UniProt O00329)
Assay: Cellular assay PI3Kdelta, p-Akt(S473) SureFire in Rat-1_PI3Kdelta cells
Assay type: cell-based
Conditions: p-AKT(Ser473), 1 h treatment; read-out: Rat1-PI3Kd/IC50
Source text: AlphaScreen (Amplified Luminescent Proximity Homogeneous Assay, ALPHA, Perkin Elmer) is a non-radioactive bead-based proximity assay technology to study biomolecular interactions in a homogenous microtiter plate format. The brand name SureFire denotes AlphaScreen assays that are adapted to quantify the phosphorylation of endogenous cellular proteins in cell lysates, by using matched antibody pairs, which consist of an anti-phospho-kinase and an anti-kinase antibody. The assay allows characterization of kinase signaling in cells as well as measurement of kinase inhibitor effects. The AlphaScreen technology provides several advantages over standard assay techniques such as ELISA, as it avoids time-consuming washing procedures and reduces plate handling. Furthermore, it is miniaturizable at least to a 384-well format and provides sensitivity down to the femtomolar range, dependent on the affinity of the antibodies included in the individual AlphaScreen SureFire assay kit. High sensitivity is reached by an intrinsic amplification mechanism, which involves production of singlet oxygen molecules. SureFire assay kits are commercially available for specific targets and include pairs of validated antibodies (PerkinElmer). This report describes common procedures applied for AlphaScreen SureFire assays and respective semi-automated steps for routine kinase inhibitor profiling in cell-based assays.
The Rat-1 cell lines stably overexpressing activated PI3K class I isoforms Rat-1 pBABEpuro Myr-HA-hp110 delta (Rat-1_PI3Kdelta) and Rat-1 pBABEpuro Myr-HA-hp110alpha (Rat-1_PI3Kalpha) and Rat-1 pBABEpuro Myr-HA-hp110 beta (Rat-1_PI3beta) were prepared as described (Maira S M, Stauffer F, Brueggen J, Furet P, Schnell C, Fritsch C, Brachmann S, Chène P, de Pover A, Schoemaker K, Fabbro D, Gabriel D, Simonen M, Murphy L, Finan P, Sellers W, Garcia-Echeverria C (2008), Mol Cancer Ther. 7:1851-63 and Maira S M, Pecchi S, Brueggen J, Huh K, Schnell C, Fritsch C, Nagel T, Wiesmann M, Brachmann S, Dorsch M, Chène P, Schoemaker K, De Pover A, Menezes D, Fabbro D, Sellers W, Garcia-Echeverria C, Voliva CF (2011), Mol. Cancer Ther., accepted). All cell lines were cultivated in complete growth medium (DMEM high glucose, 10% (v/v) fetal bovine serum, 1% (v/v) MEM NEAA, 10 mM HEPES, 2 mM L-glutamine, puromycin (10 μg/mL for Rat-1_PI3Kdelta and Rat-1_PI3Kalpha, 4 ug/mL for Rat-1_PI3beta), 1% (v/v) Pen/Strep) to 90% confluency at 37° C./5% CO2/90% humidity in a humidified CO2 incubator and were split twice a week.
The following materials were used for p-AKT(5473) detection in Rat-1 cell lysates: Dulbecco's modified Eagle's medium (DMEM) high glucose (Gibco Invitrogen, Basel, Switzerland, Cat. No. 41965), Heat Inactivated Fetal Bovine Serum, Qualified (HI FBS; Gibco Invitrogen, Basel, Switzerland, Lot. No. 16140), MEM non essential amino acids (NEAA; Gibco Invitrogen, Basel, Switzerland, Cat. No. 11140), HEPES (Gibco Invitrogen, Basel, Switzerland, Cat. No. 15630), Penicillin/Streptomycin (Pen/Strep, 100x; Gibco Invitrogen, Basel, Switzerland, Cat. No. 15140-122), L-Glutamine (Gibco Invitrogen, Basel, Switzerland, Cat. No. 25030), Puromycin (Sigma Aldrich, Buchs, Switzerland, Cat. No. P9620), DMSO (MERCK, Dietikon, Switzerland, Cat. No. 8.02912.2500), H2O, MilliQ-H2O unless otherwise stated (MILLIPORE QGARDOOR1, Millipore, Zug, Switzerland), Bovine serum albumine (BSA; Sigma Aldrich, Buchs, Switzerland Cat. No. A8412), SureFire p-Akt ½ (Ser473) Assay Kit (PerkinElmer, Schwerzenbach, Switzerland, Cat. No. TGRAS50K).
The p-Akt(5473) SureFire assay measures the phosphorylation of endogenous cellular Akt ½ at Ser473 in cell lysates. Using Rat-1 cells stably expressing myr-HA-tagged versions of the human PI3Kdelta, PI3Kalpha, or PI3Kbeta p110 catalytic subunit isoforms, the assay was developed as a two-plate protocol in a 384-well format.

human PI3Kdelta p110 catalytic subunit (Rat-1 cells), sequence (O00329 whole entry): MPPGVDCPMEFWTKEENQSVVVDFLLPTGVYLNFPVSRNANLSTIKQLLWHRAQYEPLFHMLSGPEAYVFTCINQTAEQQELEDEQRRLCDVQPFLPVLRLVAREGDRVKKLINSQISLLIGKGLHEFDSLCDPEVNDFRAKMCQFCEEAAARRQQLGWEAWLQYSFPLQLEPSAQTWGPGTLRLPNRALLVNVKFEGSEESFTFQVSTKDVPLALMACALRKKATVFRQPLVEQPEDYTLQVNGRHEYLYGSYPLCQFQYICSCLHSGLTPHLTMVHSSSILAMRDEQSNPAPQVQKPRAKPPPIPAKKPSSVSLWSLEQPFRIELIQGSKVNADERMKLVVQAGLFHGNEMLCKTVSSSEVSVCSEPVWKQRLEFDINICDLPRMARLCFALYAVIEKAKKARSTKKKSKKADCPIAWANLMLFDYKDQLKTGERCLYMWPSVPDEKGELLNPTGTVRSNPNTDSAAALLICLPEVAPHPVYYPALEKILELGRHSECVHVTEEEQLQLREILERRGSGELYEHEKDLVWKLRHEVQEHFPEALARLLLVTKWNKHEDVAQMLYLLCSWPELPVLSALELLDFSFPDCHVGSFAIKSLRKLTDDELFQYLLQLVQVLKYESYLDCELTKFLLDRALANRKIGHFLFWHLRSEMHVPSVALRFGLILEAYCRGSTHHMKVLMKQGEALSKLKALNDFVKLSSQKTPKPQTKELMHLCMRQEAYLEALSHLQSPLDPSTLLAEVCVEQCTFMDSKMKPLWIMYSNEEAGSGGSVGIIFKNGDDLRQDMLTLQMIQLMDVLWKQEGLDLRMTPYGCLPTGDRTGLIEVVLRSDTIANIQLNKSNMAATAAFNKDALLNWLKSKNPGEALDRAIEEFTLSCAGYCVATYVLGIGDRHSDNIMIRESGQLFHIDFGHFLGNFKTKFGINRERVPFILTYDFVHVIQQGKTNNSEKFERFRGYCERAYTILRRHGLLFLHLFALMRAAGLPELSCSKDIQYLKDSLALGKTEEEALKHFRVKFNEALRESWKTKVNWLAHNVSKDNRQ
human PI3Kdelta p110 catalytic subunit (Rat-1 cells), sequence (Q63787 whole entry partner): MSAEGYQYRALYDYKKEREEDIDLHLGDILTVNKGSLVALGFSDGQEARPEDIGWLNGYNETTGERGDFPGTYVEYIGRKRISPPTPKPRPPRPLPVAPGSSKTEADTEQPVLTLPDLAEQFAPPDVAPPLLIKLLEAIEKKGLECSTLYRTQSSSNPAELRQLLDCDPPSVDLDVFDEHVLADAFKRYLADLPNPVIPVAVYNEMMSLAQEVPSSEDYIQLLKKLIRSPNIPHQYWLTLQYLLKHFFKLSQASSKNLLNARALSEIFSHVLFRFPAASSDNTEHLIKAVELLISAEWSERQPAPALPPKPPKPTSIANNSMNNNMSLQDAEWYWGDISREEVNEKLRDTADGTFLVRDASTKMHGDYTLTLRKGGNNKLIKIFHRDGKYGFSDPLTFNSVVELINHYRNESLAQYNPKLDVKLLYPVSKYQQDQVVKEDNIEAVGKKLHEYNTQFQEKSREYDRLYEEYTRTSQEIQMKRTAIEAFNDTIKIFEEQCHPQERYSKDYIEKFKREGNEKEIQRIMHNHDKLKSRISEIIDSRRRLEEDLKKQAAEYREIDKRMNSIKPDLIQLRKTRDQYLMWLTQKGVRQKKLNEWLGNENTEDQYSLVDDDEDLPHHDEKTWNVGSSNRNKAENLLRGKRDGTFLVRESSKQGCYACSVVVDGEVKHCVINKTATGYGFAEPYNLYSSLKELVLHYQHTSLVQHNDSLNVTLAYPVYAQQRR

Row | SMILES | IC50 [nM]
1 | COCCOc1ccc([C@@H]2OC(=O)N(c3cc(-c4cnc(N)nc4C(F)(F)F)nc(N4CCOCC4)n3)[C@H]2CO)cc1 [Example 12] | 4
2 | CC[C@H]1[C@H](c2nccs2)OC(=O)N1c1cc(-c2cnc(N)nc2C(F)(F)F)nc(N2CCOCC2)n1 [Example 7] | 123
3 | COc1ccc([C@@H]2OC(=O)N(c3cc(-c4cnc(N)nc4C(F)(F)F)nc(N4CCOCC4)n3)[C@H]2CO)cc1 [Example 3, (4S,5S)-3-(2′-Amino-2-morpholino-4′-(trifluoromethyl)-[4,5′-bipyrimidin]-6-yl)-4-(hydroxymethyl)-5-(4-methoxyphenyl)oxazolidin-2-one] | 6
4 | CC1C(c2cccnc2)OC(=O)N1c1cc(-c2cnc(N)nc2C(F)(F)F)nc(N2CCOCC2)n1 (stereo not drawn) [Example 9] | 11
5 | Nc1ncc(-c2cc(N3C(=O)O[C@@H](c4ccccc4)[C@@H]3CO)nc(N3CCOCC3)n2)c(C(F)(F)F)n1 [Example 10] | 22
6 | C[C@H]1[C@H](c2ccccc2)OC(=O)N1c1cc(-c2cnc(N)nc2C(F)(F)F)nc(N2CCOCC2)n1 [Example 5] | 119
